Reference: PubChem BioAssay AID2060904 (Molecular Pharmacology Branch, DTP, NCI, 2025)

Tested on: 349418-098-R-PDC complex spheroid viability
Test: Anticancer human tumor 349418-098-R-PDC patient-derived lung adenocarcinoma cell line growth inhibition [RAS]
Conditions: for IC50: curve of first compound; for viability, T/C: stronger effect = lower value
Method in brief: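 Tumour cells grown as complex spheroids with HUVEC endothelial cells and mesenchymal stem cells, treated with RAS pathway inhibitor combinations. Each agent spans half-log steps from near clinical Cmax, or 10 microM where Cmax is unknown.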

[1] = second compound 0.000949 µM, first compound 0.0316 µM
[2] = second compound 0.000949 µM, first compound 0.1 µM
[3] = second compound 0.000949 µM, first compound 0.316 µM
[4] = second compound 0.000949 µM, first compound 1 µM
[5] = second compound 0.000949 µM, first compound 3.16 µM
[6] = second compound 0.000949 µM, first compound 10 µM
[7] = second compound 0.003 µM, first compound 0.0316 µM
[8] = second compound 0.003 µM, first compound 0.1 µM
[9] = second compound 0.003 µM, first compound 0.316 µM
[10] = second compound 0.003 µM, first compound 1 µM
[11] = second compound 0.003 µM, first compound 3.16 µM
[12] = second compound 0.003 µM, first compound 10 µM
[13] = second compound 0.00949 µM, first compound 0.0316 µM
[14] = second compound 0.00949 µM, first compound 0.1 µM
[15] = second compound 0.00949 µM, first compound 0.316 µM
[16] = second compound 0.00949 µM, first compound 1 µM
[17] = second compound 0.00949 µM, first compound 3.16 µM
[18] = second compound 0.00949 µM, first compound 10 µM
[19] = second compound 0.03 µM, first compound 0.0316 µM
[20] = second compound 0.03 µM, first compound 0.1 µM
[21] = second compound 0.03 µM, first compound 0.316 µM
[22] = second compound 0.03 µM, first compound 1 µM
[23] = second compound 0.03 µM, first compound 3.16 µM
[24] = second compound 0.03 µM, first compound 10 µM
[25] = second compound 0.0949 µM, first compound 0.0316 µM
[26] = second compound 0.0949 µM, first compound 0.1 µM
[27] = second compound 0.0949 µM, first compound 0.316 µM
[28] = second compound 0.0949 µM, first compound 1 µM
[29] = second compound 0.0949 µM, first compound 3.16 µM
[30] = second compound 0.0949 µM, first compound 10 µM
[31] = second compound 0.3 µM, first compound 0.0316 µM
[32] = second compound 0.3 µM, first compound 0.1 µM
[33] = second compound 0.3 µM, first compound 0.316 µM
[34] = second compound 0.3 µM, first compound 1 µM
[35] = second compound 0.3 µM, first compound 3.16 µM
[36] = second compound 0.3 µM, first compound 10 µM
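Note: spheroids exposed to compound for seven days before viability readout.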

In the case of `CC(C)NCC(C(=O)N1CCN(c2ncnc3c2C(C)CC3O)CC1)c1ccc(Cl)cc1` (stereo not drawn) + CCn1c(-c2cccnc2C(C)OC)c2c3cc(ccc31)N1CCOC(CC(NC(=O)C(C(C)C)N(C)C(=O)C3(F)CCN(C(=O)C#CC(C)(C)N(C)C)CC3)C(=O)N3CCCC(N3)C(=O)OCC(C)(C)C2)C1, the IC50 (second compound 0.000949 µM) is reported as 603 nM, the IC50 (second compound 0.003 µM) is reported as 357 nM and the IC50 (second compound 0.00949 µM) is reported as 501 nM. It also gave an IC50 (second compound 0.03 µM) of 507 nM, an IC50 (second compound 0.0949 µM) of 523 nM and an IC50 (second compound 0.3 µM) of 352 nM. It also gave a viability, T/C [1] of 83.5%, a viability, T/C [2] of 88.7% and a viability, T/C [3] of 76%. It also gave a viability, T/C [4] of 29.1%, a viability, T/C [5] of 24.2% and a viability, T/C [6] of 10.7%. It also gave a viability, T/C [7] of 103%, a viability, T/C [8] of 60.9% and a viability, T/C [9] of 51.6%. The viability, T/C [10] was 48.1%, the viability, T/C [11] was 18.7% and the viability, T/C [12] was 10.2%. The viability, T/C [13] was 101%, the viability, T/C [14] was 85.7% and the viability, T/C [15] was 58.9%. It also gave a viability, T/C [16] of 35%, a viability, T/C [17] of 19.6% and a viability, T/C [18] of 8.77%. It also gave a viability, T/C [19] of 97.6%, a viability, T/C [20] of 86.8% and a viability, T/C [21] of 56.8%. For the same compound, the viability, T/C [22] was 33.3%, the viability, T/C [23] was 28.5% and the viability, T/C [24] was 8.92%. For the same compound, the viability, T/C [25] was 83.3%, the viability, T/C [26] was 75.5% and the viability, T/C [27] was 62.9%. The viability, T/C [28] was 32.5%, the viability, T/C [29] was 24.2% and the viability, T/C [30] was 8.81%. The viability, T/C [31] was 94.9%, the viability, T/C [32] was 76.7% and the viability, T/C [33] was 46.5%. It also gave a viability, T/C [34] of 34.3%, a viability, T/C [35] of 27.5% and a viability, T/C [36] of 11%.

Work on `CC(C)NCC(C(=O)N1CCN(c2ncnc3c2C(C)CC3O)CC1)c1ccc(Cl)cc1` (stereo not drawn) + CCn1c(-c2cc(N3CCN(C)CC3)cnc2C(C)OC)c2c3cc(ccc31)-c1csc(n1)CC(NC(=O)C1CC1C)C(=O)N1CCCC(N1)C(=O)OCC(C)(C)C2 yielded an IC50 (second compound 0.000949 µM) of 843 nM, an IC50 (second compound 0.003 µM) of 831 nM and an IC50 (second compound 0.00949 µM) of 1150 nM. The IC50 (second compound 0.03 µM) was 864 nM, the IC50 (second compound 0.0949 µM) was 1190 nM and the IC50 (second compound 0.3 µM) was 829 nM. The viability, T/C [1] was 97%, the viability, T/C [2] was 86.3% and the viability, T/C [3] was 71.5%. For the same compound, the viability, T/C [4] was 47.3%, the viability, T/C [5] was 23.5% and the viability, T/C [6] was 14.2%. For the same compound, the viability, T/C [7] was 117%, the viability, T/C [8] was 101% and the viability, T/C [9] was 70.2%. The viability, T/C [10] was 45.8%, the viability, T/C [11] was 28.4% and the viability, T/C [12] was 15.1%. For the same compound, the viability, T/C [13] was 110%, the viability, T/C [14] was 97.6% and the viability, T/C [15] was 78.9%. It also gave a viability, T/C [16] of 53%, a viability, T/C [17] of 29.3% and a viability, T/C [18] of 14.8%. It also gave a viability, T/C [19] of 113%, a viability, T/C [20] of 90.1% and a viability, T/C [21] of 61.3%. The viability, T/C [22] was 45.9%, the viability, T/C [23] was 34.6% and the viability, T/C [24] was 11.4%. For the same compound, the viability, T/C [25] was 108%, the viability, T/C [26] was 118% and the viability, T/C [27] was 90.3%. For the same compound, the viability, T/C [28] was 54.5%, the viability, T/C [29] was 25.4% and the viability, T/C [30] was 10.8%. For the same compound, the viability, T/C [31] was 113%, the viability, T/C [32] was 104% and the viability, T/C [33] was 76.4%. It also gave a viability, T/C [34] of 38.6%, a viability, T/C [35] of 36% and a viability, T/C [36] of 11.6%.

`CC(C)n1nc(-c2ccc3oc(N)nc3c2)c2c(N)ncnc21` + CCn1c(-c2cc(N3CCN(C)CC3)cnc2C(C)OC)c2c3cc(ccc31)-c1csc(n1)CC(NC(=O)C1CC1C)C(=O)N1CCCC(N1)C(=O)OCC(C)(C)C2 showed an IC50 (second compound 0.000949 µM) of 2.3 nM, an IC50 (second compound 0.003 µM) of 3.06 nM and an IC50 (second compound 0.00949 µM) of 2.79 nM. For the same compound, the IC50 (second compound 0.03 µM) was 3.57 nM, the IC50 (second compound 0.0949 µM) was 1.99 nM and the IC50 (second compound 0.3 µM) was 3.49 nM. It also gave a viability, T/C (second compound 0.000949 µM, first compound 0.000316 µM) of 97.9%, a viability, T/C (second compound 0.000949 µM, first compound 0.001 µM) of 75.8% and a viability, T/C (second compound 0.000949 µM, first compound 0.00316 µM) of 37.8%. The viability, T/C (second compound 0.000949 µM, first compound 0.01 µM) was 22.4%, the viability, T/C [1] was 8.76% and the viability, T/C [2] was 7.18%. For the same compound, the viability, T/C (second compound 0.003 µM, first compound 0.000316 µM) was 87%, the viability, T/C (second compound 0.003 µM, first compound 0.001 µM) was 66.9% and the viability, T/C (second compound 0.003 µM, first compound 0.00316 µM) was 54.9%. For the same compound, the viability, T/C (second compound 0.003 µM, first compound 0.01 µM) was 18.6%, the viability, T/C [7] was 7.75% and the viability, T/C [8] was 6.04%. The viability, T/C (second compound 0.00949 µM, first compound 0.000316 µM) was 106%, the viability, T/C (second compound 0.00949 µM, first compound 0.001 µM) was 84.4% and the viability, T/C (second compound 0.00949 µM, first compound 0.00316 µM) was 46.3%. The viability, T/C (second compound 0.00949 µM, first compound 0.01 µM) was 16.6%, the viability, T/C [13] was 7.24% and the viability, T/C [14] was 5.27%. The viability, T/C (second compound 0.03 µM, first compound 0.000316 µM) was 100%, the viability, T/C (second compound 0.03 µM, first compound 0.001 µM) was 98.3% and the viability, T/C (second compound 0.03 µM, first compound 0.00316 µM) was 54.4%. It also gave a viability, T/C (second compound 0.03 µM, first compound 0.01 µM) of 11.8%, a viability, T/C [19] of 8.66% and a viability, T/C [20] of 6.68%. For the same compound, the viability, T/C (second compound 0.0949 µM, first compound 0.000316 µM) was 111%, the viability, T/C (second compound 0.0949 µM, first compound 0.001 µM) was 67.4% and the viability, T/C (second compound 0.0949 µM, first compound 0.00316 µM) was 39.3%. It also gave a viability, T/C (second compound 0.0949 µM, first compound 0.01 µM) of 18.7%, a viability, T/C [25] of 7.91% and a viability, T/C [26] of 5.64%. The viability, T/C (second compound 0.3 µM, first compound 0.000316 µM) was 94.7%, the viability, T/C (second compound 0.3 µM, first compound 0.001 µM) was 87.2% and the viability, T/C (second compound 0.3 µM, first compound 0.00316 µM) was 53.6%. It also gave a viability, T/C (second compound 0.3 µM, first compound 0.01 µM) of 14.6%, a viability, T/C [31] of 8.69% and a viability, T/C [32] of 6.51%.

`CC(=O)OC12COC1CC(O)C1(C)C(=O)C(O)C3=C(C)C(OC(=O)C(O)C(NC(=O)OC(C)(C)C)c4ccccc4)CC(O)(C(OC(=O)c4ccccc4)C21)C3(C)C` (stereo not drawn) + CCn1c(-c2cc(N3CCN(C)CC3)cnc2C(C)OC)c2c3cc(ccc31)-c1csc(n1)CC(NC(=O)C1CC1C)C(=O)N1CCCC(N1)C(=O)OCC(C)(C)C2 was tested, and the IC50 (second compound 0.000949 µM) was < 31.6 nM, the IC50 (second compound 0.003 µM) was < 31.6 nM and the IC50 (second compound 0.00949 µM) was < 31.6 nM. For the same compound, the IC50 (second compound 0.03 µM) was < 31.6 nM, the IC50 (second compound 0.0949 µM) was < 31.6 nM and the IC50 (second compound 0.3 µM) was < 31.6 nM. It also gave a viability, T/C [1] of 12.3%, a viability, T/C [2] of 12.4% and a viability, T/C [3] of 14.2%. For the same compound, the viability, T/C [4] was 13.5%, the viability, T/C [5] was 17.1% and the viability, T/C [6] was 19.4%. The viability, T/C [7] was 14.3%, the viability, T/C [8] was 11.3% and the viability, T/C [9] was 13.8%. The viability, T/C [10] was 13.4%, the viability, T/C [11] was 15.2% and the viability, T/C [12] was 22.9%. It also gave a viability, T/C [13] of 14.9%, a viability, T/C [14] of 16.2% and a viability, T/C [15] of 13.8%. It also gave a viability, T/C [16] of 16%, a viability, T/C [17] of 18.8% and a viability, T/C [18] of 17.1%. The viability, T/C [19] was 14.4%, the viability, T/C [20] was 12.8% and the viability, T/C [21] was 15.9%. The viability, T/C [22] was 18%, the viability, T/C [23] was 18% and the viability, T/C [24] was 19.1%. It also gave a viability, T/C [25] of 11.5%, a viability, T/C [26] of 14.2% and a viability, T/C [27] of 14.5%. The viability, T/C [28] was 14.3%, the viability, T/C [29] was 17.3% and the viability, T/C [30] was 18%. The viability, T/C [31] was 15.2%, the viability, T/C [32] was 12.8% and the viability, T/C [33] was 17.8%. It also gave a viability, T/C [34] of 16.8%, a viability, T/C [35] of 21.4% and a viability, T/C [36] of 18.4%.
